Experimental data reported in ChEMBL document CHEMBL1137557, “Geometry of GPPE binding to picrate and to the urokinase type plasminogen activator” (Bioorg Med Chem Lett, 2007).

Key:
Trypsin = Trypsin (Homo sapiens, UniProt P07477+P07478+P35030); assay: Inhibition of trypsin; type: protein assay
[1] = target: Urokinase-type plasminogen activator (Homo sapiens, UniProt P00749); assay: Inhibition of uPA
[2] = target: Tissue-type plasminogen activator (Homo sapiens, UniProt P00750); assay: Inhibition of tPA
Tissue-type plasminogen activator, sequence (P00750 whole entry): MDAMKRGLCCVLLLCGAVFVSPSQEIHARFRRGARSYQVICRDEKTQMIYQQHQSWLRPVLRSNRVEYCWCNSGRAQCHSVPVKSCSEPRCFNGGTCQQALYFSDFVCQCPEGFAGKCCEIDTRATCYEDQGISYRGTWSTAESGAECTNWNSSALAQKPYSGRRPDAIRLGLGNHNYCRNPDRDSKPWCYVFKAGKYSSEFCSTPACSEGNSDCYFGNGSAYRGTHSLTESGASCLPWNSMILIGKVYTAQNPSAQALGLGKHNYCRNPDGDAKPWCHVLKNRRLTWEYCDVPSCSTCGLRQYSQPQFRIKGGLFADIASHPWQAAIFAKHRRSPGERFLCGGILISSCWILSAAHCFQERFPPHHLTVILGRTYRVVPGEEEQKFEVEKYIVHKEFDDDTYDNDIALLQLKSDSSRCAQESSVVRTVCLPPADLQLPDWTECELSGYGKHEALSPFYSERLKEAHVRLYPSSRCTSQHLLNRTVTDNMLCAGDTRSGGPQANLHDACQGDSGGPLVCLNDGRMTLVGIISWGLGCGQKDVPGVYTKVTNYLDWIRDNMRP

Ki (Trypsin): 160 µM
Ki [1]: 34 µM
Ki [2]: > 1000 µM
SMILES: N=C(N)Nc1ccc(CC(=O)c2ccccc2)cc1
